Results: PubChem BioAssay AID463199 (Broad Institute, 2010)
The source made the active and inactive calls.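 How the source made its calls: active means AC50, the dose giving half-maximal effect, exceeds a fixed cutoff for a compound that rescues yeast growth under heat; inactive means the rest, inconclusive results apart.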

The compounds below were run on S. cerevisiae Burl-1 ts mutant growth, BacTiter-Glo, 38.5C 24 h (assay: growth induction of Burl-1 ts yeast mutant, dose response, counter-screen for SUMOylation pathway inhibitor project, whole organism, S. cerevisiae, luminescence (AID 463199)).

Row | Structure (SMILES) | AC50
1 | COc1ccc(CN(CC(=O)NCC2CCCO2)C(=O)CCC(=O)Nc2cc(C)on2)cc1 (stereo not given) | > 42 µM (inactive)
2 | Cc1ccccc1Nc1cc(=O)oc2ccccc12 | > 42 µM (inactive)
3 | O=C(Cn1nc(C(F)(F)F)c2c1CCCC2)N1CCOCC1 | > 42 µM (inactive)
4 | COC(=O)c1ccc(CSc2nc3ccccc3c(=O)n2CC(C)C)o1 | > 42 µM (inactive)
5 | COC(=O)c1cc2c(s1)-c1ccc(OC)cc1CC2 | > 42 µM (inactive)
6 | Cc1ccccc1Cn1cc(NC(=O)c2cc3nc(-c4ccco4)cc(C(F)(F)F)n3n2)cn1 | > 42 µM (inactive)
7 | C=CCC(NCCCO)c1cccc(OC)c1OC (stereo not given) | > 42 µM (inactive)
8 | CCNC(=S)NNC(=O)c1ccc(=O)n(Cc2ccccc2)c1 | > 42 µM (inactive)
9 | CCOc1ccc(CCNC(=O)COC(=O)c2cccc(OC)c2O)cc1OCC | > 42 µM (inactive)
10 | COc1cccc(-n2nnc3c(=O)n(CC(=O)N4CCCc5ccccc54)cnc32)c1 | > 42 µM (inactive)
11 | CN(C)c1ccc(NC(=O)CSc2nc(N)c(C(=O)Nc3ccc(N(C)C)cc3)s2)cc1 | > 42 µM (inactive)
12 | O=C1c2nccnc2C(=O)N1c1ccc(C(F)(F)F)cc1 | > 42 µM (inactive)
13 | CCC(C)NCCCCOc1cc(C)cc(C(C)C)c1 (stereo not given) | > 42 µM (inactive)
14 | Cc1csc(CNc2ncnc3ccc(-c4ccccc4Cl)cc23)c1 | > 42 µM (inactive)
15 | CCOC(=O)c1sc(N/N=C/c2ccc(N(C)C)cc2)nc1C | > 42 µM (inactive)
16 | Cc1ccc(C)c(OCCCC(=O)N2CCOCC2)c1 | > 42 µM (inactive)
17 | S=c1[nH]ccn1-c1cccc(Cl)c1 | > 42 µM (inactive)
18 | CCOc1ccc(S(=O)(=O)N2CCN(CC(O)COc3cccc([N+](=O)[O-])c3)CC2)cc1 (stereo not given) | > 42 µM (inactive)
19 | CCN1CCCC(NC(=O)c2scc3c2CCCC3)C1 (stereo not given) | > 42 µM (inactive)
20 | CCCOc1ccccc1C1NC(=O)NC(C)=C1C(=O)OCc1ccccc1 (stereo not given) | > 42 µM (inactive)
21 | O=C(CSc1nc(O)cc(=O)n1-c1ccccc1)NC1CCCCC1 | > 42 µM (inactive)
22 | Cc1cc(C)n2nc(SCC(=O)NC3CCCC(C)C3C)nc2n1 (stereo not given) | > 42 µM (inactive)
23 | COc1ccc(-c2csc(Nc3cc(C)ccn3)n2)cc1C | > 42 µM (inactive)
24 | CS(=O)(=O)NCc1ccc(C(=O)NC2CCCCC2)cc1 | > 42 µM (inactive)
25 | CC[n+]1c(/C=C/N(C)c2ccccc2)n(-c2ccccc2)c2ccc(-c3nc4ccccc4s3)cc21 | > 42 µM (inactive)

Row | Structure (SMILES) | AC50
26 | c1ccc2nc3c(nc2c1)OCC1CCCCN31 (stereo not given) | > 42 µM (inactive)
27 | COc1cccc(N=Nc2c(=O)[nH]n3c(=O)cc(C)[nH]c23)c1 | > 42 µM (inactive)
28 | Nc1cc(=O)[nH]c(=O)n1CCc1ccccc1 | > 42 µM (inactive)
29 | Cc1cc(OCC(=O)NCC2CCC(C(=O)O)CC2)c2c(C)c(C)c(=O)oc2c1 (stereo not given) | > 42 µM (inactive)
30 | COc1ccc(C)cc1NC(=S)N1CCN(c2ccccn2)CC1 | > 42 µM (inactive)
31 | O=C1C2CCCN2C(=S)N1C1CCCCC1 (stereo not given) | > 42 µM (inactive)
32 | COc1cc(SC)ccc1C(=O)Nc1cc(C)c(OCC(=O)N2CCOCC2)c(C)c1 | > 42 µM (inactive)
33 | COc1ccc(/C=N\NC(=O)c2cc(OCC(F)(F)F)ccc2OCC(F)(F)F)cc1 | > 42 µM (inactive)
34 | CCOC(=O)c1ccc(NC(=S)NCCCN2CCOCC2)cc1 | > 42 µM (inactive)
35 | CCOC(=O)C1(c2ccccc2)CCN(CCC(=O)Nc2ccccc2OC)CC1 | > 42 µM (inactive)
36 | Cc1cc(NC(=O)CC2CCCC2)ccc1Br | > 42 µM (inactive)
37 | c1ccc2cc(Cn3ccnc3)ccc2c1 | > 42 µM (inactive)
38 | O=[N+]([O-])c1nn(-c2ccc(Cl)cc2)n(O)c1=NCc1ccccc1Cl | > 42 µM (inactive)
39 | CC1(C)CC(=O)C2=C(C1)Oc1ncn(CCO)c(=N)c1C2c1ccccc1 (stereo not given) | > 42 µM (inactive)
40 | COc1cc(C(c2c(C)[nH][nH]c2=O)c2c(C)[nH][nH]c2=O)cc(OC)c1OC | > 42 µM (inactive)
41 | CC(=O)c1ccc(N2CCN(CC(=O)Nc3cc(C)on3)CC2)cc1 | > 42 µM (inactive)
42 | O=C(NCCCn1ccnc1)Nc1cccc2ccccc12 | > 42 µM (inactive)
43 | CC1CCN(S(=O)(=O)c2ccc(NC(=O)c3cccs3)cc2)CC1 | > 42 µM (inactive)
44 | CCOC(=O)c1cccc(NC(=O)C2CCCN(S(=O)(=O)c3c(C)n[nH]c3C)C2)c1 (stereo not given) | > 42 µM (inactive)
45 | CCOc1ccccc1/C=N\Nc1cnn(Cc2ccccc2)c(=O)c1Cl | > 42 µM (inactive)
46 | CCC(c1nc2ccccc2c(=O)n1-c1nc2ccccc2s1)N1C(=O)c2ccccc2C1=O (stereo not given) | > 42 µM (inactive)
47 | COc1cc(CN2CCCC(CO)(Cc3cccc(Cl)c3)C2)cc2c1OCO2 (stereo not given) | > 42 µM (inactive)
48 | CCC(C)NC(=O)CSc1nnc(-c2cc(-c3ccc(C)cc3)nc3ccccc23)n1N (stereo not given) | > 42 µM (inactive)
49 | COc1ccc(NC(=S)Nc2ccccc2OC)c(OC)c1 | > 42 µM (inactive)
50 | CCC(C)[C@H](NC(=O)Nc1ccc(S(N)(=O)=O)cc1)C(=O)OC (stereo not given in full) | > 42 µM (inactive)
